# Data published in patent US5552419A, “Arylsulfonamido-substituted hydroxamic acids” (Ciba-Geigy Corporation, priority 1993, dated 1996).
# Legend:
# [1] = biological target: recombinant human stromelysin (Homo sapiens, UniProt P08254); experiment: release of KS and S-GAG fragments into the joint in rabbits after intra-articular injection of recombinant human stromelysin; type: in vivo, rabbit; conditions: 30 mg/kg, 4 hours prior to injection of human recombinant stromelysin
# Procedure: The effect of compounds of the invention in-vivo can be determined in rabbits. […] Two hours later the rabbits are sacrificed, synovial lavage is collected, and keratan sulfate (KS) and sulfated glycosaminoglycan (S-GAG) fragments released into the joint are quantitated. Keratan sulfate is measured by an inhibition ELISA using the method of Thonar (Thonar, E. J.-M. A., Lenz, M. E., Klinsworth, G. K., Caterson, B., Pachman, L. M., Clickman, P.., Katz, R., Huff, J., Keuttner, K. E. Quantitation of keratan sulfate in blood as a marker of cartilage catabolism, Arthr. Rheum. 28, 1367-1376 (1985)). Sulfated glycosaminoglycans are measured by first digesting the synovial lavage with streptomyces hyaluronidase and then measuring DMB dye binding using the method of Goldberg (Goldberg, R. L. and Kolibas, L. An improved method for determining proteoglycan synthesized by chondrocytes in culture. Connect. Tiss. Res. 24, 265-275 (1990)). For an i.v. study, a compound is solubilized in 1 ml of PEG-400, and for a p.o. study, a compound is administered in 5 ml of fortified […] per kilogram of body weight.
# [2] = test system: cartilage degradation; experiment: protection against cartilage degradation in a surgical model of osteoarthritis; type: in vivo
# From the text: The effect in protecting against cartilage degradation in arthritic disorders can be determined e.g. in a surgical model of osteoarthritis described in Arthritis and Rheumatism, Vol. 26, 875-886 (1983).
# Chain of recombinant human stromelysin (P08254 100-477): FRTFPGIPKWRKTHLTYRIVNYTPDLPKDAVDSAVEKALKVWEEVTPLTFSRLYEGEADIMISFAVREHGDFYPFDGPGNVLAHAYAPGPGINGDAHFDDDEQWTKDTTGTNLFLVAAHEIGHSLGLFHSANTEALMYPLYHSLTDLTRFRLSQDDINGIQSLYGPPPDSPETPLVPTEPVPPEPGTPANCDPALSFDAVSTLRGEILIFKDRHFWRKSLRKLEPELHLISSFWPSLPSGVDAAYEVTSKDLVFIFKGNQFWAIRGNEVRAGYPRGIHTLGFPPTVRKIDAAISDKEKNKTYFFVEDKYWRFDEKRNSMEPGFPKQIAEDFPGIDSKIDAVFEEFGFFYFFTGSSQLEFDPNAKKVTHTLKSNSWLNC
smiles,measurement,setting,value
COc1ccc(S(=O)(=O)N(Cc2cccnc2)[C@@H](C(=O)NO)C(C)C)cc1.Cl [N-hydroxy-2(R)-[[4-methoxybenzenesulfonyl](3-picolyl)amino]-3-methylbutanamide hydrochloride],inhibition in the release of KS fragments into the joint,[1]; KS by inhibition ELISA,72%
same,inhibition in the release of S-GAG fragments into the joint,[1]; S-GAG by DMB dye binding,70%
same,effect in protecting against cartilage degradation in arthritic disorders,[2],protects against cartilage degradation
